The values below come from patent US7196110B2, “N-substituted tricyclic 3-aminopyrazoles as inhibitors for the treatment of cell proliferative disorders” (Janssen Phamaceutica N.V., priority 2002, dated 2007).

Read-outs that look alike come from different tables or passages of the source.

The assay has as its target T1, PDGF-receptor beta enzyme comprising the tyrosine kinase domain (Homo sapiens, UniProt P09619).
T1 construct: from amino acid 545 to 1106 of GenBank Access NO: AAA36427
As to the kind of experiment: Inhibition of PDGF-receptor kinase activity (cell-free, PLC1 peptide, 33P Flashplate). The format is biochemical. The settings on record: for inhibition at 10 µM: compound at 10 uM, read-out: Percent Inhibition @ 10 uM. On the procedure: PDGF-R kinase activity was assayed by its ability to phosphorylate one of its target proteins, PLCγ, in a cell-free system, in particular, a PLC1 peptide comprising the tyrosine residue where the phosphorylation occurs was used for the assay.
10× Kinase Buffer (500 mM Tris-HCl pH=8, 100 mM MgCl2, 1 mM Na3VO4); 10 mM DTT (final concentration at 1 mM in assay); 10 mM ATP (final concentration at 5 μM in assay); ^33P-γ-ATP (Cat. No.: NEG/602H. 2000-3000 Ci/mmol) purchased from NEN; Purified, soluble, recombinant PDGF-receptor beta enzyme comprising the tyrosine kinase domain (from amino acid 545 to 1106 of GenBank Access NO: AAA36427 ) at 0.4 mg/mL; Enzyme Dilution Buffer (50 mM Tris-HCl pH=8.0, 0.1% BSA); Wash/Stop Buffer (PBS +100 mM EDTA); NEN Streptavidin Flashplates (Cat. No.: SMP-103) which binds to the biotinylated PLC1 peptide but not the PDGF-R enzyme; PLC1 peptide (Biotin-[…]-Amide) at 1 mM in 50 mM Tris-HCL with pH of 8.0.
Reagents were first mixed according the following regimen:
The above reaction mixture was dispensed into each well of a Flashplate at 70 μl/well. To test the effect of a compound on PDGF-R kinase activity, the test compound either in a fixed concentration or in serially diluted concentrations in 100% DMSO was added to appropriate wells at 1 μl/well.
Enzyme PDGF-R was diluted in Enzyme dilution buffer as following:
The kinase reaction was initiated by adding 30 μl of diluted PDGF-R enzyme solution to each well on the Flashplate containing hot ATP and PLC1, except wells of column 12 rows E through H, which were used to calculate the plate background. The Flashplate was swirled to mix and was incubated at 30° C. for 60 minutes. Then, the reaction mixture was discarded and the Flashplate was washed 3 times each with 200 μl Wash/Stop Buffer. Subsequently, each well on the Flashplate was filled with 200 μl of Wash/Stop buffer. The amount of ^33P retained in each well was measured using a Packard TopCount after the plate was sealed with a transparent plate sealer.
The percentage of inhibition of the test compound on PDGF-R kinase activity is defined as […].
In order to test the potency of inhibition of present compounds, an IC50 for an individual compound was measured using the above procedure. As used herein, the IC50 for PDGF-R kinase activity refers to the concentration of an inhibitor at which the activity of the PDGF-R kinase is reduced by one-half as compared with reactions containing no inhibitor.

[1] abbreviates: read-out: IC50 (μM) on PDGF-R kinase activity.
[2] abbreviates: PDGF-R kinase activity, read-out: IC50.

Usually inhibition stands for the change of the read-out against control, counted positive when it falls. In general, IC50 refers to the concentration needed to halve the response being measured.

T1 sequence (P09619 545-1106): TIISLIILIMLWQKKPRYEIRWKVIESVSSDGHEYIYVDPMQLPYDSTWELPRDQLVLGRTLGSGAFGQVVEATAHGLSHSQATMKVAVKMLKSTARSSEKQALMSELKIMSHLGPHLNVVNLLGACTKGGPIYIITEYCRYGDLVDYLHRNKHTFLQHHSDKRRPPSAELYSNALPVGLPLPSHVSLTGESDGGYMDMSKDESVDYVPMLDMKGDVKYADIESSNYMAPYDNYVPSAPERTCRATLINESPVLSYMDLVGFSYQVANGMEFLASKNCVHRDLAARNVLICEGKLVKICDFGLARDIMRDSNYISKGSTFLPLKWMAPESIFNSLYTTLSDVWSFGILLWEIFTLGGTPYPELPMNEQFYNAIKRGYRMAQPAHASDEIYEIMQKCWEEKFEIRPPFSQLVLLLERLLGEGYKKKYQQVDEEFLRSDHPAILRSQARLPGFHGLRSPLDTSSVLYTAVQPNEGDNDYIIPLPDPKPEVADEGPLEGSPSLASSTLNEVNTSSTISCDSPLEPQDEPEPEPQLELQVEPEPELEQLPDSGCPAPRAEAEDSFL

In the case of `COc1cc2c(cc1OC)-c1n[nH]c(Nc3cnccc3C(F)(F)F)c1C2` [Compound 577, (6,7-Dimethoxy-2,4-dihydro-indeno[1,2-c]pyrazol-3-yl)-(4-trifluoromethyl-pyridin-3-yl)-amine], for the setting “PDGF-R kinase activity”, the inhibition at 10 µM came to 19%. Under setting [1], the IC50 stood at 362 µM.
Consider `COc1ccc(Nc2[nH]nc3c2Cc2c(OC)cccc2-3)cc1` [Compound 145, (5-Methoxy-2,4-dihydro-indeno[1,2-c]pyrazol-3-yl)-(4-methoxy-phenyl)-amine], for which, for the setting “PDGF-R kinase activity”, the inhibition at 10 µM amounted to 48.5%. The IC50 under setting [2] came to 13.9 µM.
For `CCC1c2cc(OC)c(OC)cc2-c2n[nH]c(NCc3c(Cl)cccc3Cl)c21` (single isomer, unassigned) [Compound 585, (2,6-Dichloro-benzyl)-(4-ethyl-6,7-dimethoxy-2,4-dihydro-indeno[1,2-c]pyrazol-3-yl)-amine], where the note is “PDGF-R kinase activity”, the inhibition at 10 µM stood at 102%. Under setting [1], the IC50 worked out at 0.429 µM.
Regarding `COCCCOc1ccc2c(c1)Cc1c-2n[nH]c1Nc1cccc(C(=O)OC)c1` [Compound 137, 3-[6-(3-Methoxy-propoxy)-2,4-dihydro-indeno[1,2-c]pyrazol-3-ylamino]-benzoic acid methyl ester], the inhibition at 10 µM (PDGF-R kinase activity) was 71%. Moreover, the IC50 under setting [2] came to 2.11 µM.
With `COc1cc2c(cc1OC)-c1c(c(Nc3cccc(F)c3)nn1C(=O)c1c(F)cccc1F)C2` [Compound 480, (2,6-Difluoro-phenyl)-[3-(3-fluoro-Phenylamino)-6,7-dimethoxy-4H-indeno[1,2-c]pyrazol-1-yl]-methanone], the inhibition at 10 µM (PDGF-R kinase activity) came out at 8%.
Turning to `COc1cc2c(cc1F)Cc1c-2n[nH]c1NCc1ccccc1C` [Compound 425, (6-Fluoro-7-methoxy-2,4-dihydro-indeno[1,2-c]pyrazol-3-yl)-(2-methyl-benzyl)-amine], the inhibition at 10 µM (PDGF-R kinase activity) is 96%. Besides, the IC50 under setting [2] was determined as 0.0023 µM.
For `COc1cc2c(cc1OC)-c1n[nH]c(NCc3ccc(F)cc3)c1C2` [Compound 331, (6,7-Dimethoxy-2,4-dihydro-indeno[1,2-c]pyrazol-3-yl)-(4-fluoro-benzyl)-amine] the same measures were 93% and 0.189 µM.
For `COc1cc2c(cc1OC)-c1n[nH]c(Nc3cc(Cl)ccc3Cl)c1C2` [Compound 34, (2,5-Dichloro-phenyl)-(6,7-dimethoxy-2,4-dihydro-indeno[1,2-c]pyrazol-3-yl)-amine] the same measures were 57% and 6.99 µM.
Regarding `COc1cc2c(cc1OC)-c1n[nH]c(NCc3ccccc3F)c1C2` [Compound 325, (6,7-Dimethoxy-2,4-dihydro-indeno[1,2-c]pyrazol-3-yl)-(2-fluoro-benzyl)-amine], the inhibition at 10 µM (PDGF-R kinase activity) was 61%. Further, under setting [2], the IC50 was 0.0967 µM.
For `COc1cc2c(cc1OC)-c1n[nH]c(NCc3ccc(C)cc3)c1C2` [Compound 222, (6,7-Dimethoxy-2,4-dihydro-indeno[1,2-c]pyrazol-3-yl)-(4-methyl-benzyl)-amine], in that order: 70% and 0.806 µM.
For `COc1cc2c(cc1OC)-c1n[nH]c(NCc3ccccn3)c1C2` [Compound 563, (6,7-Dimethoxy-2,4-dihydro-indeno[1,2-c]pyrazol-3-yl)-pyridin-2-ylmethyl-amine], in that order: 89% and 1.45 µM.
On to `COc1ccccc1CNc1[nH]nc2c1Cc1cc(OC)c(OC)cc1-2` [Compound 224, (6,7-Dimethoxy-2,4-dihydro-indeno[1,2-c]pyrazol-3-yl)-(2-methoxy-benzyl)-amine], for which the inhibition at 10 µM (PDGF-R kinase activity) amounted to 24%.
Turning to `Cc1cccc(Nc2[nH]nc3c2Cc2cc(F)ccc2-3)c1` [Compound 240, (6-Fluoro-2,4-dihydro-indeno[1,2-c]pyrazol-3-yl)-m-tolyl-amine], the inhibition at 10 µM (PDGF-R kinase activity) was 92%. Besides, under setting [2], the IC50 worked out at 0.002 µM.
For `COc1cc2c(c(N)c1OC)Cc1c-2n[nH]c1Nc1cccc(F)c1` [Compound 558, N3-(3-Fluoro-phenyl)-6,7-dimethoxy-2,4-dihydro-indeno[1,2-c]pyrazole-3,5-diamine], in that order: 102% and 0.0121 µM.
As to `COc1cc2c(cc1OC)-c1n[nH]c(Nc3c(F)cccc3F)c1C2` [Compound 476, (2,6-Difluoro-phenyl)-(6,7-dimethoxy-2,4-dihydro-indeno[1,2-c]pyrazol-3-yl)-amine], the inhibition at 10 µM (PDGF-R kinase activity) was determined as 88.5%. Besides, under setting [2], the IC50 was 0.25 µM.
For `COc1cc2c(cc1OC)-c1n[nH]c(Nc3ccc(F)c([N+](=O)[O-])c3)c1C2` [Compound 276, (6,7-Dimethoxy-2,4-dihydro-indeno[1,2-c]pyrazol-3-yl)-(4-fluoro-3-nitro-phenyl)-amine], in that order: 11% and 0.287 µM.
`COc1cc2c(cc1OC)-c1n[nH]c(Nc3ccco3)c1C2` [Compound 78, (6,7-Dimethoxy-2,4-dihydro-indeno[1,2-c]pyrazol-3-yl)-furan-2-yl-amine]: the inhibition at 10 µM (PDGF-R kinase activity) worked out at 85%. Besides, under setting [2], the IC50 stood at 1.29 µM.
Turning to `COc1cc2c(cc1OC)-c1c(c(Nc3cccc(F)c3)nn1S(=O)(=O)N(C)C)C2` [Compound 447, 3-(3-Fluoro-phenylamino)-6,7-dimethoxy-4H-indeno[1,2-c]pyrazole-1-sulfonic acid dimethylamide], the inhibition at 10 µM (PDGF-R kinase activity) was 7%.
Regarding `COc1cc2c(cc1OC)-c1n[nH]c(Nc3ccc(Br)cc3C(F)(F)F)c1C2` [Compound 76, (4-Bromo-2-trifluoromethyl-phenyl)-(6,7-dimethoxy-2,4-dihydro-indeno[1,2-c]pyrazol-3-yl)-amine], the inhibition at 10 µM (PDGF-R kinase activity) is 16%. Under setting [2], the IC50 is > 50 µM.
As to `COc1cc2c(cc1OC)-c1c(c(Nc3cccc(F)c3)nn1C(=O)NCCNCCO)C2` [Compound 523, 3-(3-Fluoro-phenylamino)-6,7-dimethoxy-4H-indeno[1,2-c]pyrazole-1-carboxylic acid [2-(2-hydroxy-ethylamino)-ethyl]-amide], the inhibition at 10 µM (PDGF-R kinase activity) was 98.5%. In addition, under setting [2], the IC50 turned out to be 0.193 µM.
For `Fc1cccc(F)c1CNc1[nH]nc2c1Cc1c(OCCCN3CCOCC3)cccc1-2` [Compound 414, (2,6-Difluoro-benzyl)-[5-(3-morpholin-4-yl-propoxy)-2,4-dihydro-indeno[1,2-c]pyrazol-3-yl]-amine], in that order: 80.5% and 0.564 µM.
For `Oc1cc2c(cc1O)-c1n[nH]c(Nc3cccc(F)c3)c1C2` [Compound 362, 3-(3-Fluoro-phenylamino)-2,4-dihydro-indeno[1,2-c]pyrazole-6,7-diol] the same measures were 80.5% and 0.784 µM.
With `COc1cc2c(cc1OC)-c1n[nH]c(N(c3cccc(F)c3)[C@@H]3O[C@H](C(=O)O)[C@@H](O)[C@H](O)[C@H]3O)c1C2` [Compound 591, 6-[(6,7-Dimethoxy-2,4-dihydro-indeno[1,2-c]pyrazol-3-yl)-(3-fluoro-phenyl)-amino]-3,4,5-trihydroxy-tetrahydro-pyran-2-carboxylic acid], the inhibition at 10 µM (PDGF-R kinase activity) is 96%. Moreover, the concentration for half-maximal inhibition (IC50) under setting [1] worked out at 0.662 µM.
For `COc1cc2c(cc1OC)-c1n[nH]c(Nc3cc(C)cc(C)n3)c1C2` [Compound 588, (6,7-Dimethoxy-2,4-dihydro-indeno[1,2-c]pyrazol-3-yl)-(4,6-dimethyl-pyridin-2-yl)-amine] the same measures were 103% and 0.556 µM.
As to `COC(=O)Cn1nc(Nc2cccc(F)c2)c2c1-c1cc(OC)c(OC)cc1C2` [Compound 509, [3-(3-Fluoro-phenylamino)-6,7-dimethoxy-4H-indeno[1,2-c]pyrazol-1-yl]-acetic acid methyl ester], the inhibition at 10 µM (PDGF-R kinase activity) was 30.5%.
As to `Cc1cccc2c1Cc1c-2n[nH]c1Nc1ccc(OC(F)(F)F)cc1` [Compound 104, (5-Methyl-2,4-dihydro-indeno[1,2-c]pyrazol-3-yl)-(4-trifluoromethoxy-phenyl)-amine], the inhibition at 10 µM (PDGF-R kinase activity) worked out at 36%. The IC50 under setting [2] stood at 0.666 µM.
For `COCCOC(=O)n1nc2c(c1Nc1cccc(F)c1)Cc1cc(OC)c(OC)cc1-2` [Compound 437, 3-(3-Fluoro-phenyl-amino)-6,7-dimethoxy-4H-indeno[1,2-c]pyrazole-2-carboxylic acid 2-methoxy-ethyl ester] the same measures were 83.5% and 0.291 µM.
